Laboratory results taken from article PMC12123458, “Unraveling Small Molecule-Mediated Sirtuin 3 Activation at a Distinct Binding Site for Cardioprotective Therapies” (ACS Central Science, 2025).

Experiments:
H9c2 cells = experiment: Dox-induced cardiotoxicity model in H9c2 cells, MTT cell viability; assay type: cell-based
Procedure: H9c2 cardiomyocytes were cultured in high-glucose DMEM supplemented with 10% FBS and 1% penicillin/streptomycin under a 5% CO2 atmosphere at 37 °C. Cells were seeded at 5 × 10^4 cells/mL in 96-well plates and treated with 1 μM Dox for 24 h. After Dox treatment, cell viability was quantified via MTT assay; 3-(4,5-dimethythiazol-2-yl)-2,5-diphenyltetrazolium bromide (MTT, 5 mg/mL) was applied for 4 h, followed by DMSO dissolution of formazan crystals. Additionally, cells were pretreated with 10 μM SKLB-11A for 24 h prior to 1 μM Dox exposure, and viability was similarly assessed using MTT.

SIRT1 [1] = molecular target: T1, SIRT1 (Homo sapiens, UniProt Q96EB6); experiment: SPR binding to SIRT1
T1 sequence (Q96EB6 1-747): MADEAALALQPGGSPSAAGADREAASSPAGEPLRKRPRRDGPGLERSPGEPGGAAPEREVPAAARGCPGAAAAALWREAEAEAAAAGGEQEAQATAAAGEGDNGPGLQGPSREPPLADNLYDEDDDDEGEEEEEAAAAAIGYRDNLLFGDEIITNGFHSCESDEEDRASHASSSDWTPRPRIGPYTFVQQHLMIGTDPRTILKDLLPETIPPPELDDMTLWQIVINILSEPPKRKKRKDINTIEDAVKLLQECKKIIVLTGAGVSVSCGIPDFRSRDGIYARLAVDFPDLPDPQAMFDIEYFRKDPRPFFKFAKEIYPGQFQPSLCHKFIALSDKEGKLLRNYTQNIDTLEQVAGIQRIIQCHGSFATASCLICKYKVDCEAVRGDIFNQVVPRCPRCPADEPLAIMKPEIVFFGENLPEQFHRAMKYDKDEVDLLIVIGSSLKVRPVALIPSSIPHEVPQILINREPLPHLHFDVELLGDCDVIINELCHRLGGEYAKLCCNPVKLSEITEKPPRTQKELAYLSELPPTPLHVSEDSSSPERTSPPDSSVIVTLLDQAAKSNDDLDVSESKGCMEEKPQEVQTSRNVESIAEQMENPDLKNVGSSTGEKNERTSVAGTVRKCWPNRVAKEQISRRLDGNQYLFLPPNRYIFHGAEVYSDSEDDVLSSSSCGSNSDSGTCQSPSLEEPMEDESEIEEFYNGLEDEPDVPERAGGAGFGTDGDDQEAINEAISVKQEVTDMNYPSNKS
Procedure: (§1) The affinity of SKLB-11A for SIRT1, SIRT2, SIRT3, SIRT5, and SIRT6 was determined using a Reichert 4SPR system (Reichert Technologies, Depew, NY, USA). Proteins at 200 μg/mL were immobilized on a dextran-coated sensor chip (13206066) until reaching ≥12,000 response units (RUs). A dual-flow channel setup was used, reserving one channel for blank controls. SKLB-11A was introduced at varying concentrations for binding and subsequent dissociation kinetic analysis. Data acquisition was at 25 °C utilizing a PBST running buffer (pH 7.4). The equilibrium dissociation constant (K d) was computed from steady-state affinity measurements using TraceDrawer software.

SIRT1 [2] = molecular target: T2, SIRT1 (Rattus norvegicus, UniProt A0A0G2JZ79); experiment: CETSA of SIRT1 in H9c2 cells; assay type: cell-based
T2 construct: endogenous in cells; host or cells: H9c2
T2 sequence (A0A0G2JZ79 1-741): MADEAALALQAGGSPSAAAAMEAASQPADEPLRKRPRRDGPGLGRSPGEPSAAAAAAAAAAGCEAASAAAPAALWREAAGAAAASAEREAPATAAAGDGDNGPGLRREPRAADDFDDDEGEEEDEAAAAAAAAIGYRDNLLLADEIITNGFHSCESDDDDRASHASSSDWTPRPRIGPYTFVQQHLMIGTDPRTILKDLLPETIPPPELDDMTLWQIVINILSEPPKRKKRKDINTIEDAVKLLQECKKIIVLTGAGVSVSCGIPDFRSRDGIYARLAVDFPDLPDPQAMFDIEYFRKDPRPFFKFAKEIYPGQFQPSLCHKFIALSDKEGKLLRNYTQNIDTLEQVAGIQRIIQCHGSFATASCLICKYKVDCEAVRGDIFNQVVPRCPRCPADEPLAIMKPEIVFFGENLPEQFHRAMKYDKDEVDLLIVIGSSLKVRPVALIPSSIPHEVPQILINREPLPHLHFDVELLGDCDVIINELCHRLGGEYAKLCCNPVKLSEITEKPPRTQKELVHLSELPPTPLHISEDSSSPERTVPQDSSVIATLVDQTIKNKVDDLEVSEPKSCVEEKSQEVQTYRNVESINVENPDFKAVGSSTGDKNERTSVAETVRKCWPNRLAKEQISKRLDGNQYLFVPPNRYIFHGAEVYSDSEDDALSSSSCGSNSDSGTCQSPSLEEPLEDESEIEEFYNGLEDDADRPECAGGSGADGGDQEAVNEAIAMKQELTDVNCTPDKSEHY

SIRT3 = molecular target: T3, SIRT3 (Homo sapiens, UniProt Q9NTG7); experiment: SPR binding to immobilized SIRT3; conditions: 25 °C, PBST pH 7.4
T3 construct: purchased Enzo Life Sciences BML-AK557-0001
T3 sequence (Q9NTG7 1-399): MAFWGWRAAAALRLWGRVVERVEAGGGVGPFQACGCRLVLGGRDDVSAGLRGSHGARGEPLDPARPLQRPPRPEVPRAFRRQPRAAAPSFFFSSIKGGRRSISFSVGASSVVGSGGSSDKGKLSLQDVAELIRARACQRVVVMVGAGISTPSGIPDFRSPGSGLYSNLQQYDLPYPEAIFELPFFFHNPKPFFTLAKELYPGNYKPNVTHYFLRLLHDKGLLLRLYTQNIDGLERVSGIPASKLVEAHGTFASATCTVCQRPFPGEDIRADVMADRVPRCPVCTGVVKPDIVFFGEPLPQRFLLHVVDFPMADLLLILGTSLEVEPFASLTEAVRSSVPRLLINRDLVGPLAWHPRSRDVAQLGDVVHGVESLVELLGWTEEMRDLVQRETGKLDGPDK
Procedure: as §1

[3] = test system: LC3, p62, PINK1, Parkin in H9c2 cells; experiment: Autophagy/mitophagy markers in H9c2 cells (Western blot, immunofluorescence); assay type: cell-based; conditions: 24 h
Procedure: Proteomic analysis was conducted on H9c2 cells and murine cardiac tissues. Protein lysates were resolved via SDS-PAGE and transferred onto PVDF membranes. […] After washing, membranes were probed with secondary antibodies for 1 h at room temperature. Detection was facilitated by an ECL kit, with densitometry performed using ImageJ software to quantify protein expression, normalized against controls. The antibodies employed included: anti-SIRT3 (2627, Cell Signaling Technology), anti-acetylated lysine (9441, CST), anti-Ac.K68-MnSOD2 (ab137037, Abcam), anti-Ac.K122-MnSOD2 (ab214675, Abcam), anti-MnSOD2 (13141, CST), anti-LC3B (3868, CST), anti-p62 (8025, CST), anti-PINK1 (6946, CST), anti-Parkin (4211, CST), and anti-β-actin (ab8226, Abcam).

COC(=O)c1c(N)n(Cc2ccc(F)cc2)c2nc3ccccc3nc12 [SKLB-11A, Methyl 2-amino-1-(4-fluorobenzyl)-1H-pyrrolo[2,3-b]quinoxaline-3-carboxylate]
protective effects on H9c2 cells compared to the positive control compounds (H9c2 cells; Dox-treated H9c2, MTT): slightly better protective effects | viability at 10 µM (H9c2 cells; Rattus norvegicus, H9c2, 10 µM pretreatment 24 h, then 1 µM Dox 24 h, MTT, Model (Dox) = Dox alone, read-out: Cardiomyocyte survival rate at 10 uM (%)): 78.88 ± 0.65% | cardioprotective effects in H9c2 cells with reduced SIRT3 expression (H9c2 cells; SIRT3 knockdown by shRNA, cell viability): significantly diminished | Kd (SIRT1 [1]; SPR): > 200 µM | affinity for SIRT1 lower than its affinity for SIRT3 (SIRT1 [1]; SPR Kd ratio): approximately 40 times | thermal stability of SIRT1 (CETSA) (SIRT1 [2]): little effect on the thermal stability | Kd (SIRT3): 4.7 µM | LC3-II and p62 (autophagic flux) [3]: increased LC3-II expression and reduced p62 levels | expression of PINK1 and Parkin [3]: increased the expression of PINK1 and Parkin
